The text below walks through data of patent US11865103B2, “Methods of treating disorders associated with glycosylation defective proteins” (CASE WESTERN RESERVE UNIVERSITY, priority 2016, dated 2024).

For this assay, the system named is hair cells of hCLRN1^N48K-YFP; clrn1^KO/KO larvae. In words: Extracellular microphonic potentials of lateral line neuromast hair cells. The format is in vivo, zebrafish. As to conditions: 0.4 uM ART 4 hours/day from 3 dpf to 6 dpf; recorded at 6 dpf; untreated 7.286. The method, then: Zebrafish larvae at 6 dpf were anesthetized using MS-222 (Sigma-Aldrich) dissolved in a standard bath solution containing 120 mM NaCl, 2 mM KCl, 10 mM HEPES, 2 mM CaCl2, and 0.7 mM NaH2PO4 adjusted to pH 7.2. The larvae were then secured in a recording chamber using dental floss tie downs (Ricci and Fettiplace, 1997). Their blood flow and heart rate were visually observed to assess viability using an upright Olympus BX51WI microscope. Recordings were made with a PC-505B amplifier (Warner Instruments) and a PCI-6221 digitizer (National Instruments). Images were taken with a Grasshopper3 CMOS camera (Point Grey) and processed with software provided by the manufacturer. To record the activity of hair cells from the lateral line neuromasts, the cupula of neuromasts were deflected with a fluid jet placed ˜50 μm from the neuromast (Trapani and Nicolson, 2010) and controlled by an HSPC-1 (ALA Scientific Instruments) that delivered sinusoidal stimuli of 50 Hz. Microphonic potentials were recorded at room temperature (22° C.). […] Microphonic potentials were recorded using a jClamp for Windows (SciSoft, license: Joseph Santos-Sacchi, Yale University, New Haven, CT) in current-clamp mode, amplified by 20 (SIM983; Stanford 37 Research), and low-pass filtered at 200 Hz. […]

On to `C[C@@H]1CC[C@H]2[C@@H](C)C(=O)O[C@@H]3O[C@@]4(C)CC[C@@H]1[C@]32OO4` [ART, Artemisinin], for which the “Extracellular microphonic potentials (Mean±SEM)” value was 9.529 μV.
